One series can be described thus: oral toxicity on mice. The settings on record: mouse, in vivo. An excerpt:
(§1) The fodder utilization factors determined for the compounds according to the invention, furthermore the oral toxicity data of the novel compounds measured on mice are listed in Table 1. For the sake of comparison the respective data of some known compounds structurally related to those of formula I are also given.

Another series relates to pigs. Put plainly: weight gain increasing effect on pigs (fodder admixed with compound), fodder utilization factor. Conditions: fodder admixed with 50 mg./kg. of compound, index from feeding coefficient and percentage daily weight gain, control 50. It is filed as in vivo. The procedure: When utilized as fodder additives, the new compounds according to the invention increase the weight gain and fodder utilization of pigs. The weight gain increasing effect of the compounds was tested on pigs as follows:
The animals were fed under the same conditions with fodders of the same amount and composition. In the test groups the animals received a fodder admixed with 50 mg./kg. of the compound to be tested, whereas no additive was admixed with the fodder in the control group.
The weight gain was measured daily, and the feeding coefficient (amount of consumed fodder resulting in a weight gain of 1 kg.) was calculated. The percentage daily weight gain was calculated by the formula [formula]
Since the rate of weight gain increasing effect depends on both the feeding coefficient and the percentage daily weight gain, and because of the actual fodder consumption and the time required to reach the slaughter weight are the important factors of economical animal husbandry, an index characteristic of the rate of weight gain increase was calculated from the above data by the equation [formula] The higher is the fodder utilization factor the more economic is the pig-breeding.
as §1

From patent US4091206A, “Quinoxaline-1,4-dioxide derivatives” (Egyt Gyogyszervegyeszeti Gyar, priority 1974, dated 1978) come the findings set out here.

The molecule `CCCCCCC(=O)NN=Cc1c[n+]([O-])c2ccccc2[n+]1[O-]` [hexyl, 2-(Hexylcarbonyl-hydrazono-formyl)-quinoxaline-1,4-dioxide] gave an LD50 in the series “oral toxicity on mice” (po) of 4000 mg/kg. Also, the Fodder utilization factor with pigs is 53.
The like results for `O=C(Cc1cccc2ccccc12)NN=Cc1c[n+]([O-])c2ccccc2[n+]1[O-]` [1-napthylmethyl, 2-(1'-Naphthyl-acetyl)-hydrazono-formyl-quinoxaline-1,4-dioxide] were, in that order, 13000 mg/kg and 93.5.
In “oral toxicity on mice” (oral, mice), `O=C(NN=Cc1c[n+]([O-])c2ccccc2[n+]1[O-])c1ccncc1` [Example 4-pyridyl, 2-(Isonicotinoyl)-hydrazono-formyl-quinoxaline-1,4-dioxide] gave an LD50 of 12000 mg/kg. In addition, in the series with pigs, the Fodder utilization factor worked out at 91.
On to `O=C(NN=Cc1c[n+]([O-])c2ccccc2[n+]1[O-])c1ccc([N+](=O)[O-])o1` [Example 5-nitrofuryl, 2-(5'-Nitro-2'-furanoyl)-hydrazono-formyl-quinoxaline-1,4-dioxide], for which, in “oral toxicity on mice” (po), the LD50 is 14000 mg/kg. The Fodder utilization factor with pigs is 91.
For the molecule `O=C(NN=Cc1c[n+]([O-])c2ccccc2[n+]1[O-])c1ccccc1` [phenyl, 2-(Benzoyl-hydrazono-formyl)-quinoxaline-1,4-dioxide], the LD50 in “oral toxicity on mice” (oral, mice) stood at 4000 mg/kg. Moreover, in the series with pigs, the Fodder utilization factor was found to be 66.
For the molecule `COC(=O)NN=Cc1c[n+]([O-])c2ccccc2[n+]1[O-]` [methoxy, 2-(Methoxycarbonyl-hydrazono-formyl)-quinoxaline-1,4-dioxide], the LD50 in the series “oral toxicity on mice” (oral, mice) is 4000 mg/kg. The Fodder utilization factor in the series with pigs is 66.
